Results as given in patent US20140011853A1, “SUBSTITUTED 3-(BIPHENYL-3-YL)-8,8-DIFLUORO-4-HYDROXY-1-AZASPIRO[4.5]DEC-3-EN-2-ONES FOR THERAPY” (BAYER INTELLECTUAL PROPERTY GMBH, priority 2011, published 2014).
Values joined by “and” are separate entries in the source; they are usually repeats but may differ in a detail not shown here. Equal entries are not always repeated.

Assays:
[1] = Octanol/water distribution coefficient (logP/D), isocratic HPLC method; format: physicochemical; details: pH 7.4
Description: Assay for Determining the Octanol/Water Distribution Coefficient (logP/D):
The distribution coefficient octanol/water P or D is a key parameter for estimating membrane penetration and permeability. It is defined as the ratio of the equilibrium concentrations of a substance in the two-phase system octanol/water.
It is usually stated in form of the decadic logarithm (logP or logD).
logP describes the distribution behaviour of a substance exclusively present in its neutral form. logD describes the distribution behaviour of a substance at a certain pH; depending on the ionization constant pKa of the substance, some of the substance may be present in ionic form, and some in neutral form.
The logP/D of the active compounds was determined using an isocratic HPLC method (HPLC=high performance liquid chromatography) (literature: OECD Guideline for Testing of Chemicals No. 117). The method is based on the correlation of the HPLC retention time of the test substance to that of reference substances with known distribution coefficients.
The test substance was employed as a 10 mM solution in DMSO (DMSO=dimethyl sulphoxide). 10 μl of this solution were made up to 100 μl with a methanol/water mixture in a ratio of 7+3.
The nine reference substances were dissolved individually in methanol. 100 μl each of the stock solutions were added to an HPLC vial and mixed with 300 μl of water.
A formamide solution was used to determine the hold-up time. To this end, 7 mg of formamide were dissolved in 10 ml of methanol. 100 μl of this stock solution were mixed with 500 μl of methanol and 200 μl of water.
All solutions were chromatographed using a flow rate of 1.00 ml/min.
Injection Protocol: formamide, references, test substance 1, test substance 2, . . . , formamide, references.
Evaluation of the retention times was carried out in a diode array detector (DAD) at 200-400 nm Via the molecular mass, the identity of the test substance was checked using the downstream mass spectrometer.
The HPLC run was evaluated using the Waters software Masslynx 4.1.
The logP/D values were calculated using the software “POW Determination” (proprietary development).

[2] = target: T1, human ACC1 (Homo sapiens, UniProt Q13085); test: Human ACC1 enzyme assay (ADP-Glo); format: biochemical; details: ACC 1 IC50, individual measurements
T1 construct: FLAG (C); made in house; host or cells: baculovirus-infected insect cells (Hi5)

[3] = target: human ACC2 (Homo sapiens, UniProt O00763); test: Human ACC2 enzyme assay (ADP-Glo); details: ACC 2 IC50, individual measurements
human ACC2, sequence (O00763 27-2458 limits assumed): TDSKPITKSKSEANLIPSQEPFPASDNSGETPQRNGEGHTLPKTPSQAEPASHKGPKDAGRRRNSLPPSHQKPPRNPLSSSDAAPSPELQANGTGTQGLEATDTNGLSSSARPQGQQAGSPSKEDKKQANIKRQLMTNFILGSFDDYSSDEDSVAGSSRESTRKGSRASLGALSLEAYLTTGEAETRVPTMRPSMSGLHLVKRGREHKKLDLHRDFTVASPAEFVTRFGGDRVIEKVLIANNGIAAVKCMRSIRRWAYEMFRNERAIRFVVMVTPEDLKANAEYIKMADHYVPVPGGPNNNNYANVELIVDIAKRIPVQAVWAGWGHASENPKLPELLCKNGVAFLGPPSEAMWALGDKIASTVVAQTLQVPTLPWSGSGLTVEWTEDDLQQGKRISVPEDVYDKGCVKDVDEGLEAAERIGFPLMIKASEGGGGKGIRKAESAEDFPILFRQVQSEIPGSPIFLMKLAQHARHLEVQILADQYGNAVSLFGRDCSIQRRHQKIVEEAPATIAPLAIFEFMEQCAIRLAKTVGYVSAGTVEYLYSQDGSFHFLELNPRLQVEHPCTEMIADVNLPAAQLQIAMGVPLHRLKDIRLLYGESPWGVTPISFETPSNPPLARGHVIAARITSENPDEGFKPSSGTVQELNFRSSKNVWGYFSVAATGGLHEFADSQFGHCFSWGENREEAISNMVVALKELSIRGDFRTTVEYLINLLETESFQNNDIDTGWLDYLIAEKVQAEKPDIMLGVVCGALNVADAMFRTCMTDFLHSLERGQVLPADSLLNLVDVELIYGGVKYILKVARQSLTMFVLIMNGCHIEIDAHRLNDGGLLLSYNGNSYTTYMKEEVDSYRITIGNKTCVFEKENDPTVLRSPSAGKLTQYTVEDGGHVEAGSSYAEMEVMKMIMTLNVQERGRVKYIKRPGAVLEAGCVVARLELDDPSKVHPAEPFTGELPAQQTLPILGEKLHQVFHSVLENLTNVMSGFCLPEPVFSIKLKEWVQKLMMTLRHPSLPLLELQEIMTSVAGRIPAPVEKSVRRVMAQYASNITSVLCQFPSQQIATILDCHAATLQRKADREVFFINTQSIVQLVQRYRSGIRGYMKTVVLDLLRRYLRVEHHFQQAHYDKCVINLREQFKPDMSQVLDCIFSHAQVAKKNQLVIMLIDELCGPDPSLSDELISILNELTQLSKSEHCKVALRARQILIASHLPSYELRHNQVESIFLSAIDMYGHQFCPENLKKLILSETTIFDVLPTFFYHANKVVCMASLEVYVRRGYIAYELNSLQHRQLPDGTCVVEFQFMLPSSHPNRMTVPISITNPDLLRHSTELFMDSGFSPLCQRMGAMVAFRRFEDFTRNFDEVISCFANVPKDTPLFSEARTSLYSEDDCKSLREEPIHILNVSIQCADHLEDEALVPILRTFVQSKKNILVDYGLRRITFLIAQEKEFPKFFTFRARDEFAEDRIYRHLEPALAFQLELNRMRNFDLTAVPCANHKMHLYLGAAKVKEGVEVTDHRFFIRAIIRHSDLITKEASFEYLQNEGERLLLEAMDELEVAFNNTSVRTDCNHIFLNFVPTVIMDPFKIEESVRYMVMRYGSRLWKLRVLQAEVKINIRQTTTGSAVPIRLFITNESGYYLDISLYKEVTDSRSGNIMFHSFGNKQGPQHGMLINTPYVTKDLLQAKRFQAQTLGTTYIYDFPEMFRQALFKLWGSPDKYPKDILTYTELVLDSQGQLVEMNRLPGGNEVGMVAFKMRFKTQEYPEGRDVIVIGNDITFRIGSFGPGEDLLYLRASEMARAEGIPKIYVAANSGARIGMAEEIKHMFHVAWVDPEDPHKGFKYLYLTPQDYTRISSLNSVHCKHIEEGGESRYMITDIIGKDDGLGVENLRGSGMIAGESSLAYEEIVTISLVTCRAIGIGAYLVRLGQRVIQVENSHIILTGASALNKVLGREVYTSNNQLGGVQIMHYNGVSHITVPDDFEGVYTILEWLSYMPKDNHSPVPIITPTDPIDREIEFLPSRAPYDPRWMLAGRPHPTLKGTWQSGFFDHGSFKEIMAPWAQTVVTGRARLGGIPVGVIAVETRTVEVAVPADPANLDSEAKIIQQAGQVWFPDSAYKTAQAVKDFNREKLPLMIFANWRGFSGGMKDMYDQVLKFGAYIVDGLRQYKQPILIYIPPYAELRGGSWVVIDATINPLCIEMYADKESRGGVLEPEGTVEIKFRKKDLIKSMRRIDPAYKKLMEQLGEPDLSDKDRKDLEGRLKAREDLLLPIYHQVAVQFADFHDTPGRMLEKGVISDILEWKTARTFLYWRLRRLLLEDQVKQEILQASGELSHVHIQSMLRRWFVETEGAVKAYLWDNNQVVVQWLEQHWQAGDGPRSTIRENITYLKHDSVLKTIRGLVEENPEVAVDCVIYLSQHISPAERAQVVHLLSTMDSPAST

[4] = test system: Spodoptera frugiperda; test: Spodoptera frugiperda test (SPODFR spray treatment); format: in vivo; details: 500 g/ha, after 7 days
[5] = test system: Tetranychus urticae; test: Tetranychus test, OP-resistant (TETRUR spray treatment); format: in vivo; details: Tetranychus urticae, 144 h, read-out: effect (kill of spider mites)
[6] = test system: MCF7; test: Tumour cell proliferation, CellTiter-Glo, 96-hour incubation, MCF7; format: cell-based; details: Homo sapiens, MCF7, 96 h, read-out: MCF7 IC50
Method: In accordance with the invention, the substances were tested in cell-based assays for the ability of the substances of inhibiting tumour cell proliferation after a 96-hour incubation with the substance. Cell viability was tested using the CellTiter-Glo® luminescent cell viability assay (Promega). The cells were sown at a density of 2000-5000 cells/well (depending on the cell line) in 100 μl growth medium on 96-well microtiter plates. For each cell line examined, cells were sown on a separate plate to determine the luminescence at t=0 hours and t=96 hours. After overnight incubation at 37° C., the luminescence values for the t=0 samples were determined. The dose plates for the t=96 hours points in time were treated with substances diluted with growth medium. The cells were then incubated at 37° C. for 96 hours, and the luminescence values for the t=96 hours samples were then determined. For data analysis, the t=0 values were subtracted from the t=96 hours values for treated and untreated samples. The differences in luminescence in percent between substance-treated samples and control values were used to determine the growth inhibition in percent.
The substances were tested in the following cell lines which represent the stated indications in an exemplary manner: […]

[7] = test system: Phaedon cochleariae; test: Phaedon test (PHAECO spray treatment); details: 500 g/ha, after 7 days
[8] = Plasma protein binding by equilibrium dialysis, mouse; format: in vitro ADME; details: read-out: fu (mouse)
Method: The binding of test substances to plasma proteins is determined by equilibrium dialysis by means of the Ht-dialysis apparatus (96-well) made of Teflon and a semipermeable membrane (regenerated cellulose, MWCO 12-14K). This separates 150 μl each of a plasma side and a buffer side (50 mM phosphate buffer). The test substance is added in 2 concentrations (usually 3 and 0.3 μM) to the plasma side and binds to plasma proteins. The unbound fraction of the test substance passes through the membrane and is distributed on either side until equilibrium is established (after approx. 6-8 h at 37° C.). The substance concentration on the buffer side and the plasma side is determined by LC-MS analysis. For this, both sides are brought by dilution with buffer or plasma to the same matrix (10% plasma) and then precipitated with methanol. The free (unbound) fraction (fu) is calculated from the quotient of the buffer and plasma concentration. Stability tests and recovery tests are run concurrently as controls. In addition, the substance in buffer is dialysed against buffer, to check the nonspecific binding to apparatus and membrane and establishment of equilibrium. Because during incubation the osmotic pressure of the plasma proteins leads to dilution of the plasma (volume shift), this possible error is determined by weighing blank plasma samples and is included in the calculation of fu. Establishment of equilibrium and plasma stability should have a value not lower than 80% and the recovery should be at least 30%. A free fraction of <1% is regarded as high, between 1 and 10% as moderate and >10% as low plasma protein binding.

Row | SMILES | chromatographic logP [1] | IC50 [2] | IC50 [3] | effect (kill of caterpillars) [4] | pest or weed control at 100 g/ha [5] | IC50 [6] | effect (kill of beetle larvae) [7] | fraction unbound [8]
1 | Cc1ccc(-c2ccc(Cl)cc2)cc1C1=C(O)C2(CCC(F)(F)CC2)NC1=O [Example 1-2, 3-(4′-Chloro-4-methylbiphenyl-3-yl)-8,8-difluoro-4-hydroxy-1-azaspiro[4.5]dec-3-en-2-one] | 1.73 | 68 nM and 80 nM and 99 nM and 109 nM and 72 nM and 65 nM and 135 nM and 153 nM | 2350 nM and 2070 nM and 2450 nM and 2790 nM and 650 nM and 1280 nM and 1230 nM and 1740 nM | 100% | 100% | 30 nM | 100% | 0.0349
2 | Cc1ccc(-c2ccc(Cl)c(F)c2)cc1C1=C(O)C2(CCC(F)(F)CC2)NC1=O [Example 1-1, 3-(4′-Chloro-3′-fluoro-4-methylbiphenyl-3-yl)-8,8-difluoro-4-hydroxy-1-azaspiro[4.5]dec-3-en-2-one] | 1.9 | 117 nM and 125 nM and 69 nM and 95 nM and 58 nM and 97 nM and 53 nM and 54 nM | 3370 nM and 2110 nM and 2510 nM and 3740 nM and 957 nM and 1910 nM and 2780 nM and 3240 nM | 100% | 90% | 22 nM | 100% | 0.0184
